In ChEMBL document CHEMBL1201862, “PubChem BioAssay data set” (2004):
“And” between values parts separate entries of the source, which are not always exact repeats. Equal entries are not always repeated.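 Where inhibition never reached the appropriate level, the endpoint shown equals the highest concentration tested. Otherwise, values were interpolated linearly from a five-concentration, 48-hour dose response in 96-well plates. GI50 marks 50% less growth.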 The source made the active and inactive calls. No stated cut-off is given here; in the data, active = GI50 up to about 1.1 µM and inactive = higher.

Legend:
Assay in all cases: NCI anticancer screen, dose series, 48 h
[1] = tested on: OVCAR-5
[2] = tested on: LOX IMVI
[3] = tested on: SK-MEL-5
[4] = tested on: SF-539
[5] = tested on: UO-31
[6] = tested on: UACC-257
[7] = tested on: NCI/ADR-RES
[8] = tested on: Malme-3M
[9] = tested on: HCC 2998
[10] = tested on: MDA-MB-231
[11] = tested on: 786-0
[12] = tested on: SNB-19
[13] = tested on: IGROV-1
[14] = tested on: CCRF-CEM
[15] = tested on: Hs-578T
[16] = tested on: SK-OV-3
[17] = tested on: MCF7
[18] = tested on: SF-268
[19] = tested on: TK-10
[20] = tested on: SR

SMILES	GI50 [1]	GI50 [2]	GI50 [3]	GI50 [4]	GI50 [5]	GI50 [6]	GI50 [7]	GI50 [8]	GI50 [9]	GI50 [10]	GI50 [11]	GI50 [12]	GI50 [13]	GI50 [14]	GI50 [15]	GI50 [16]	GI50 [17]	GI50 [18]	GI50 [19]	GI50 [20]
COc1cccc(C2c3cc4c(cc3OC3COC(=O)C32)OCO4)c1OC (stereo unspecified)	> 100 µM (inactive)	> 100 µM (inactive)	> 100 µM (inactive)	> 100 µM (inactive)	> 100 µM (inactive)	> 100 µM (inactive)	> 100 µM (inactive)	> 100 µM (inactive)	> 100 µM (inactive)	> 100 µM (inactive)	> 100 µM (inactive)	> 100 µM (inactive)	> 100 µM (inactive)	> 100 µM (inactive)	32.7 µM (inactive)	57.8 µM (inactive)	83 µM (inactive)	> 100 µM (inactive)	> 100 µM (inactive)	
N#CCCN(CCC#N)c1ccc(C(/N=N/c2ccccc2)=N\c2ccccc2)cc1	> 100 µM (inactive)		> 100 µM (inactive)	> 100 µM (inactive)	> 100 µM (inactive)	> 100 µM (inactive)	> 100 µM (inactive)		> 100 µM (inactive)	> 100 µM (inactive)	> 100 µM (inactive)	> 100 µM (inactive)	> 100 µM (inactive)	> 100 µM (inactive)	> 100 µM (inactive)	> 100 µM (inactive)	> 100 µM (inactive)	> 100 µM (inactive)	> 100 µM (inactive)	> 100 µM (inactive)
CN1CCN(c2ccc([N+](=O)[O-])c3no[n+]([O-])c23)CC1	1.76 µM (inactive)	0.0485 µM (active)	0.743 µM (active)	0.0652 µM (active)	0.239 µM (active)	1.19 µM (inactive)	0.161 µM (active)	0.16 µM (active)		1.34 µM (inactive)	0.0452 µM (active)	0.914 µM (active)	0.0719 µM (active)	0.0143 µM (active)	0.571 µM (active)	0.148 µM (active)	0.0817 µM (active)	0.0375 µM (active)	0.792 µM (active)	< 0.01 µM (active)
CC1C(O)Oc2cc3c(cc2C1c1ccccc1O)OCO3 (stereo unspecified)	45.7 µM (inactive)	31.6 µM (inactive)	33.3 µM (inactive)	27.9 µM (inactive)	28.8 µM (inactive)	30.1 µM (inactive)		25.3 µM (inactive)	38.5 µM (inactive)	34.6 µM (inactive)	39.4 µM (inactive)	51.6 µM (inactive)	28 µM (inactive)	16.7 µM (inactive)	11.5 µM (inactive)	39.9 µM (inactive)	38.1 µM (inactive)	36.1 µM (inactive)	27.4 µM (inactive)	4.65 µM (inactive)
Cc1cc(=O)oc2c(CNC(C(=O)O)C(C)O)c(O)ccc12 (stereo unspecified)	> 100 µM (inactive)	> 100 µM (inactive)	> 100 µM (inactive)	> 100 µM (inactive)	> 100 µM (inactive)	> 100 µM (inactive)	> 100 µM (inactive)	24.8 µM (inactive)		> 100 µM (inactive)	> 100 µM (inactive)	> 100 µM (inactive)	> 100 µM (inactive)	> 100 µM (inactive)	77.4 µM (inactive)	> 100 µM (inactive)	> 100 µM (inactive)	> 100 µM (inactive)	> 100 µM (inactive)	> 100 µM (inactive)
COP(=O)(OC)[C@@](O)(c1ccccc1)[C@@H](O)[C@H](O)c1ccccc1	> 100 µM (inactive)	21.1 µM (inactive)	> 100 µM (inactive)	38.4 µM (inactive)	> 100 µM (inactive)	> 100 µM (inactive)	> 100 µM (inactive)	> 100 µM (inactive)		> 100 µM (inactive)	98.6 µM (inactive)	> 100 µM (inactive)	> 100 µM (inactive)	18.3 µM (inactive)	> 100 µM (inactive)	> 100 µM (inactive)	22.5 µM (inactive)	> 100 µM (inactive)	> 100 µM (inactive)	> 100 µM (inactive)
C/C(=C\COc1ccc2ccc(=O)oc2c1)C1=CC(=O)C(C)(C)O1 [GEIPARVARIN]	10.2 µM (inactive)	1.89 µM (inactive)	3.45 µM (inactive)	2.17 µM (inactive)	6.11 µM (inactive)	4.69 µM (inactive)	2.64 µM (inactive)	5.58 µM (inactive)	3.94 µM (inactive)	5.18 µM (inactive)	3.74 µM (inactive)	6.15 µM (inactive)	4.63 µM (inactive)	1.51 µM (inactive)	2.51 µM (inactive)	7.87 µM (inactive)		3.93 µM (inactive)	5.07 µM (inactive)	1.68 µM (inactive)
C[C@H](c1ccccc1)N1C(=O)[C@@H](OCc2ccccc2)[C@H]1[C@H](COC(=O)COCc1ccccc1)OCc1ccccc1	> 100 µM (inactive)	> 100 µM (inactive)	58.7 µM (inactive)		7.69 µM (inactive)			11.6 µM (inactive)		> 100 µM (inactive)	> 100 µM (inactive)	37.1 µM (inactive)	> 100 µM (inactive)	> 100 µM (inactive)	60.7 µM (inactive)	> 100 µM (inactive)	> 100 µM (inactive)	> 100 µM (inactive)	> 100 µM (inactive)	> 100 µM (inactive)
COc1ccc2c(Cl)cc(NC(=S)Nc3ccccc3)nc2c1	30.1 µM (inactive)	21.1 µM (inactive)	33.6 µM (inactive)	32.6 µM (inactive)		60.8 µM (inactive)	22.3 µM (inactive)	15.2 µM (inactive)		26.4 µM (inactive)	22.3 µM (inactive)	20.6 µM (inactive)	20.8 µM (inactive)	< 0.01 µM (active)	14.4 µM (inactive)	26 µM (inactive)	25.8 µM (inactive)	24.8 µM (inactive)	57.7 µM (inactive)	26.2 µM (inactive)
Cc1ccc(Cl)c2[nH]c(-c3ccccc3)cc(=O)c12	76.4 µM (inactive)	22.5 µM (inactive)	15.8 µM (inactive)			40.9 µM (inactive)	57.4 µM (inactive)	> 100 µM (inactive)	93.1 µM (inactive)	38.9 µM (inactive)	90.4 µM (inactive)		33.7 µM (inactive)	38.5 µM (inactive)	59.2 µM (inactive)	> 100 µM (inactive)	3.18 µM (inactive)	14.8 µM (inactive)	47.2 µM (inactive)	
S=C(c1c[nH]c2ccccc12)N1CCN(c2ccccc2)CC1	> 100 µM (inactive)	> 100 µM (inactive)	80 µM (inactive)	71.6 µM (inactive)		> 100 µM (inactive)	34.9 µM (inactive)	18.8 µM (inactive)		> 100 µM (inactive)	46.9 µM (inactive)	> 100 µM (inactive)	7.11 µM (inactive)	> 100 µM (inactive)	1.06 µM (active)	> 100 µM (inactive)	> 100 µM (inactive)	19.8 µM (inactive)	> 100 µM (inactive)	> 100 µM (inactive)
CCCCCCCCCCCCCC(=O)CBr	22.1 µM (inactive)	3.83 µM (inactive)	12.1 µM (inactive)	13.2 µM (inactive)	8.93 µM (inactive)	13.2 µM (inactive)		9.06 µM (inactive)	15.8 µM (inactive)	16.3 µM (inactive)	5.13 µM (inactive)	16.9 µM (inactive)	5.79 µM (inactive)	0.467 µM (active)	5.64 µM (inactive)	24 µM (inactive)	13.4 µM (inactive)	12.2 µM (inactive)	15.8 µM (inactive)	1.04 µM (active)
CCCCC(CCCC)=NNC(=S)SC	38.2 µM (inactive)	27.3 µM (inactive)	16.1 µM (inactive)	26.2 µM (inactive)	24.7 µM (inactive)	24.9 µM (inactive)	25.1 µM (inactive)	13.1 µM (inactive)	15.4 µM (inactive)	28.3 µM (inactive)	34.8 µM (inactive)	24.3 µM (inactive)			44.2 µM (inactive)	> 100 µM (inactive)	28.6 µM (inactive)	34.3 µM (inactive)	17 µM (inactive)	
N=C(N)N/N=C/c1c(-c2cc([N+](=O)[O-])c(Cl)cc2Cl)nc2sccn12	1.87 µM (inactive)	130 nM (active) and 1.18 µM (inactive)	1.58 µM (inactive) and 1.35 µM (inactive)	1.53 µM (inactive) and 1.85 µM (inactive)	2.05 µM (inactive) and 1.29 µM (inactive)	1.41 µM (inactive) and 1.44 µM (inactive)	> 100 µM (inactive)	1.67 µM (inactive) and 239 nM (active)		200 nM (active) and 2.02 µM (inactive)	1.67 µM (inactive)			0.714 µM (active)	1.54 µM (inactive) and 1.53 µM (inactive)	1.83 µM (inactive)	1.26 µM (inactive)	1.83 µM (inactive)	1.54 µM (inactive) and 1.57 µM (inactive)	0.0368 µM (active)
CCOP(=O)(OCC)C1CC(O)C(=O)N1 (stereo unspecified)	> 100 µM (inactive)	> 100 µM (inactive)	> 100 µM (inactive)		> 100 µM (inactive)	> 100 µM (inactive)	> 100 µM (inactive)	> 100 µM (inactive)		> 100 µM (inactive)	> 100 µM (inactive)	> 100 µM (inactive)	> 100 µM (inactive)	> 100 µM (inactive)	> 100 µM (inactive)	> 100 µM (inactive)	> 100 µM (inactive)	> 100 µM (inactive)	> 100 µM (inactive)	> 100 µM (inactive)
